{
  "source": "patent US20070167447A1",
  "about": "“Indole acetamides as inhibitors of the hepatitis c virus ns5b polymerase” (priority 2003, published 2007)",
  "key": {"[1]": {"biological_target": "T1, HCV RNA dependent RNA polymerase (NS5B) (Hepatitis C virus genotype 1b, UniProt P26663)", "T1 construct": "made in house; host or cells: insect cells infected with recombinant baculovirus (as described for the cited WO 96/37619)", "T1 sequence (P26663 2420-3010)": "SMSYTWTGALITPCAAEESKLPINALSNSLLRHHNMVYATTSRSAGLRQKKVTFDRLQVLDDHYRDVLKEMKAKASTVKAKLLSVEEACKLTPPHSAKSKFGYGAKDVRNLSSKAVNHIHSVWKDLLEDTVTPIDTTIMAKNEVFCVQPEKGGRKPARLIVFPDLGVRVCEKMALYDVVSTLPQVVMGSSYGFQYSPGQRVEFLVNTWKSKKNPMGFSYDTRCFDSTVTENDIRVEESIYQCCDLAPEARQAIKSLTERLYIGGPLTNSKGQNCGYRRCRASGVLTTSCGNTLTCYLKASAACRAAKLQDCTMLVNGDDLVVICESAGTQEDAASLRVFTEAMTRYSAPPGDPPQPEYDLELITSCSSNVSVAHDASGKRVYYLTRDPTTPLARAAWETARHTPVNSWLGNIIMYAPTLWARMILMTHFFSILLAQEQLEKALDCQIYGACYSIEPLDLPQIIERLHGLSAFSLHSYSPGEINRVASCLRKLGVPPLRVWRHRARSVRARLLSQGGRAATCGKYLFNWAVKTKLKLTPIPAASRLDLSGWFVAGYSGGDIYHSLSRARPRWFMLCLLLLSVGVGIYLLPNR", "experiment": "In-vitro HCV NS5B enzyme inhibition assay", "format": "biochemical", "conditions": "NS5B enzyme 5 nM, 1 h at 22° C.", "source_text": "i) In-vitro HCV NS5B Enzyme Inhibition Assay\nWO 96/37619 describes the production of recombinant HCV RdRp from insect cells infected with recombinant baculovirus encoding the enzyme. […] The reference describes a polymerisation assay using poly(A) and oligo(U) as a primer or an heteropolymeric template. Incorporation of tritiated UTP or NTPs is quantified by measuring acid-insoluble radioactivity. The present inventors have employed this assay to screen the various compounds described above as inhibitors of HCV RdRp.\n(§1) Incorporation of radioactive UMP was measured as follows. The standard reaction (50 μl) was carried out in a buffer containing 20 mM tris/HCl pH 7.5, 5 mM MgCl2, 1 mM DTT, 50 mM NaCl, 0.03% N-octylglucoside, 1 μCi [^3H]-UTP (40 Ci/mmol, NEN), 10 μM UTP and 10 μg/ml poly(A) or 5 μM NTPs and 5 μg/ml heteropolymeric template. Oligo(U)12 (1 μg/ml, Genset) was added as a primer in the assay working on Poly(A) template. The final NS5B enzyme concentration was 5 nM. The order of assembly was: 1) compound, 2) enzyme, 3) template/primer, 4) NTP. After 1 h incubation at 22° C. the reaction was stopped by adding 50 μl of 20% TCA and applying samples to DE81 filters. The filters were washed thoroughly with 5% TCA containing 1M Na2HPO4/NaH2PO4, pH 7.0, rinsed with water and then ethanol, air dried, and the filter-bound radioactivity was measured in the scintillation counter. […]"}, "[2]": {"tested_on": "subgenomic HCV replicon in Huh-7 cells", "experiment": "Cell based HCV sub-genomic replication assay (NS3 Cell-ELISA)", "conditions": "Hepatitis C virus; Huh-7 replicon cells, 96 hours, NS3 expression", "procedure": "as §1\nCell clones that stably maintain subgenomic HCV replicon were obtained by transfecting Huh-7 cells with an RNA replicon identical to I377neo/NS3-3′/wt described by Lohmann et al. (1999) (EMBL-genbank No. AJ242652), followed by selection with neomycin sulfate (G418). […] Each condition was tested in duplicate and average absorbance values were used for calculations. […] After washing again as above, the reaction was developed with p-Nitrophenyl phosphate disodium substrate (Sigma) and the absorbance at 405/620 nm read at intervals. […]"}},
  "note": "Where a name gives a salt, the structure may show the parent alone.",
  "data": [
    {"molecule": "CN(CC1CCCCN1C)C(=O)Cn1c(-c2ccccc2)c(C2CCCCC2)c2ccc(C(=O)O)cc21", "note": "(centres unmarked) [Example 15, 3-cyclohexyl-1-(2-{methyl[(1-methylpiperidin-2-yl)methyl]amino}-2-oxoethyl)-2-phenyl-1H-indole-6-carboxylic acid trifluoroacetate]", "values": [
      {"measurement": "IC50", "setting": "[1]", "result": 0.014, "unit": "µM"},
      {"measurement": "EC50", "setting": "[2]", "result": 0.27, "unit": "µM"}
    ]}
  ]
}
